Experimental data published in US11213815B2, “Netwell assay plate system” (VIB VZW, priority 2016, dated 2022).

System: Arabidopsis plants
Experiment: Arabidopsis netwell growth assay (rosette area over time, plants grown in soil in the multiwell plate system)
Type: in vivo
Experimental: In the Arabidopsis […] growth assay, plants were grown in soil inside a 24 well […] insert plate comprising a polystyrene porous membrane with a pore size of about 420 μm, which is positioned into a 24 well irrigation plate (FIG. 1, 2). Before sowing, seeds were vernalized in water at 4 degrees Celsius for two days. Afterwards, the […] insert plate was filled with fine potting soil, or optionally with soil mixed with sand (ratio 3:1). During this process the soil (or soil with sand) was compressed two times (or optionally three times for soil/sand) by applying a light pressure onto the individual […]. A “humidity control” soil sample was taken for determination of the initial soil water humidity (see later). Next, one mL of water was added to each of the wells of the irrigation plates. The […] insert plates were positioned inside the irrigation plates and the mounted plates were sealed with (plastic) tape surrounding the edges, to prevent excessive water evaporation from the boundary wells as compared to the center wells of the 24 well plate. This was a crucial step to avoid growth differences between plants in boundary and center wells, and to obtain reproducible results. Next, the weight of the combined insert and irrigation plates was recorded. When seeds were used as samples, during the sowing of the Arabidopsis seeds, one seed was distributed in each of the wells. For germination, the […] insert plates were covered with a standard multiwell cover plate which was sealed with parafilm and was placed inside a plant growth chamber. After three days, the covers were removed and the plants continued to grow at normal atmospheric conditions. At 7 days after sowing, or when the appropriate plant stage was reached (e.g. 7 and 10 or 5 and 7 days), the plants received a (chemical) treatment. Therefore, 0.5 (optionally 0.8 mL for soil with sand) of a (chemical-containing) solution was added to each of the wells via the corresponding access holes. Each plant sample receives the supplied (same) amount of (chemical) solution. In the days following the treatment, the plants were again irrigated with water to maintain a soil water humidity of 3.5 (or optionally 0.95 for soil with sand) (see below). In the 24 well format the growth of Arabidopsis plants was typically followed for about 15 days, during which image analysis procedures were used to follow the growth of the individual plant samples over time and to quantify the growth response of these plants in response to the specific (chemical) treatments. The initial soil water humidity was determined by first drying the “humidity control” soil sample in an oven at 60 degrees Celsius, to obtain the “dry weight”. Next, taking into account the weight of the empty irrigation plates, the empty […] insert plates, and the current weight of the combined insert and irrigation plates, water was added to each of the wells to reach a “soil water humidity” of “3.5 gram water per gram of dry soil” or “3.5” (optionally, when soil with sand was used: “0.95 gram water per gram of dry soil (with sand)” was used as initial soil water humidity value). Water was added into the irrigation plate wells through the access holes present in the corresponding […] insert plate wells using a repetition pipet. Due to equal evaporation of water from individual wells within one insert plate, each well of the irrigation plate received the same amount of water, rounded to 100 μL. The water, added to the wells in the irrigation plates, is taken up by the soil present in the hollow chambers of the […] insert plate wells, through the mesh by capillary forces (FIG. 3B). This irrigation was repeated on a daily basis to prevent excessive drying of the soil in the wells. This watering regime is suitable for frequently used Arabidopsis growth conditions, but can be altered and further optimized when a plant drought-stress response is the desired testing regime. Plants were grown as described in the above […] assay method. […]

CC(C)(C)[C@@H](O)[C@@H](Cc1ccc(Cl)cc1)n1cncn1 (racemic) [Paclobutrazol]
effect on plant growth (rosette area), dose response (Example 6, 0.8 mL at 7 and 10 DAS, Paclobutrazol 10, 20, 100 μM vs 0.1% DMSO, FIG. 8B): plant growth retarding effect

c1ccc(CNc2ncnc3nc[nH]c23)cc1 [BAP, 6-Benzylaminopurine]
effect on plant growth (average projected rosette area over time) (Example 2, 0.5 mL treatment solution at 8 DAS, 10 μM Kresoxim-methyl or 10 μM 6-Benzylaminopurine, imaging 4-16 DAS, vs water control, FIG. 4): shoot growth inhibition

O=C(O)Cc1cccc2ccccc12 [NAA, 1-Naphthaleneacetic acid]
rosette size versus NAA concentration (Example 5, 0.8 mL at 7 and 10 DAS, 1, 10, 20, 100 μM NAA vs DMSO vehicle, imaging 4-14 DAS, FIG. 7B): The higher the concentration of NAA during the treatment, the smaller the rosette size | maximal inhibitory concentration (Example 5, rosette growth, concentration at which maximal inhibition was probably already reached): ≤ 50 µM

O=C(O)/C=C\c1ccccc1 [cis-CA, cis-cinnamic acid]
effect on plant growth (rosette area) at higher concentration, dose response (Example 6, 0.8 mL at 7 and 10 DAS, cis-CA 20, 50, 100 μM vs 0.1% DMSO, FIG. 8A): plant growth retarding effect | effect on plant growth (rosette area) at low concentration (Example 6, 0.8 mL at 7 and 10 DAS, cis-CA at 1 (unit not given) vs 0.1% DMSO, FIG. 8A): slightly positive effect | toxicity for the plant at higher concentration (Example 6, cis-CA at higher concentration (20, 50, 100 μM), FIG. 8A): rather toxic for the plant
